From patent US9889126B2, “Use of naratriptan in the treatment of rosacea” (GALDERMA RESEARCH & DEVELOPMENT, priority 2013, dated 2018)

How the values were obtained:
[1] = test system: human subcutaneous artery; assay: Vascular tonicity of human subcutaneous arteries ex vivo, myography; assay type: cell-based; conditions: for EC50: sc, dose-response
Description: (§1) Human subcutaneous veins are isolated from healthy human skin derived from plastic surgery operative waste (abdominal plasty). On receipt the skin sample is held at 4° C. in a receptacle containing physiological saline solution (PSS) 1× at pH=7.4. Dissection, isolation and mounting of the veins are conducted in cold PSS pH=7.4 using straight forceps and a stereomicroscope. Once the vein is isolated and cleaned of surrounding fat and conjunctive tissue, a segment 2 mm in length and diameter of between 100 and 600 μm is mounted in the myograph chamber between two 40 μm tungsten wires attached to removable jaws connected to the tension sensor and held in physiological saline solution (PSS) at pH=7.4 and 37° C. To perform the myography study the vein is placed at working pre-tension (g) corresponding to physiological pressure of 18 mmHg. Pre-tensioning is obtained by mechanical action to draw apart the tungsten wires (40 μm). The viability of the vessel is verified by depolarising the membrane of the vessel smooth muscle cells by increasing the concentration of potassium in the chamber. To do so the PSS solution contained in each chamber is replaced by a solution containing 80 mM KCl at pH=7.4 and pre-heated to 37° C. This step must be repeated twice with 1×PSS washing to cause relaxation between each contraction. At this stage if there is no change in measured tension the isolated vessel is considered non-viable. Naratriptan was evaluated by dose-response (n=1) to determine its maximum contraction intensity (Emax) and strength (EC50). The vessel was treated with increasing successive doses of product added every 3 minutes to the myograph chamber. Tension data (g) are successively converted to: • Tension (mN) 1 g=9.81 mN • Tension applied to the vessel wall (mN/mm): by dividing the tension value in mN by twice the length of the vessel i.e. 4 mm.
(§2) Data are then expressed for the vasoconstrictor product in percentage contraction (%) taking as 100% the value obtained for treatment with 80 mM KCl at step 1 to verify vessel viability.
(§3) The method used for this study is identical to the method used in Example 1. To perform myographic studies the vein is placed at a pre-tension (g) corresponding to physiological pressure of 18 mmHg while the artery is placed at a pre-tension of 90 mmHg since an artery wall is thicker than a vein wall.
(§4) The myograph apparatus has four independent chambers. Therefore four vessel segments were mounted in parallel in each study. Each compound was subjected to dose-response evaluation for each type of vessel (n=1). The vessel was therefore treated with successive, increasing concentrations of product added every 3 minutes to the myograph chamber. The tested compounds were naratriptan, sumatriptan, almotriptan and Rizatriptan.

human subcutaneous veins = assay: Vascular tonicity of human subcutaneous veins ex vivo, myography; assay type: cell-based; conditions: for EC50 / Emax (% max. contraction vs. 80 mM KCL): human subcutaneous vein, n=1; for EC50: dose-response
Description: as §1, §2, §3, §4

[2] = Release and penetration into dermatomized human skin (Franz cells); assay type: in vitro ADME; conditions: 2% in PBS; for Mass balance: mean
[3] = test system: neurogenic inflammation induced in mouse ear; assay: Neurogenic inflammation assay, mouse ear, reziniferatoxin (RTX); assay type: in vivo
Description: The compound was then tested in a water/ethanol carrier to increase solubility.

Structure (SMILES) | Emax (% max. contraction vs. 80 mM KCl) ([1]; n=1) | EC50 ([1]; n=1) | EC50 (human subcutaneous veins) | Emax (% max. contraction vs. 80 mM KCL) (human subcutaneous veins) | Total skin [2] | Mass balance [2] | Total skin ([2]; listed as Naratriptan hydrochloride) | Persistent effect on the human vein after successive washings, time after removal of the compound (human subcutaneous veins; Example 1, after removal of compound from the chamber) | Inhibition of neurogenic inflammation ([3]; 1% in acetone carrier, up to 45 minutes after treatment, single RTX application) | Inhibition of neurogenic inflammation ([3]; 1% topical in water/ethanol carrier, treatment time 15 minutes) | Emax (% max. contraction vs. 80 mM KCl) ([1]; n=1, listed as sumatriptan)
CN(C)CCc1c[nH]c2ccc(Cn3cncn3)cc12 [Rizatriptan, rizatriptan] | 54% | 217 nM | 93 nM | 94% |  |  |  |  |  |  | 
CN(C)CCc1c[nH]c2ccc(CS(=O)(=O)N3CCCC3)cc12 [Almotriptan, almotriptan] |  |  | 62 nM | 97% | 1.86 % applied dose | 94.16 % applied dose |  |  |  |  | 
CNS(=O)(=O)CCc1ccc2[nH]cc(C3CCN(C)CC3)c2c1 [Naratriptan, N-methyl-2-[3-(1-methylpiperidin-4-yl)-1H-indol-5-yl]ethanesulfonamide] | 82% | 20 nM | 13 nM | 105% | 3.46 % applied dose | 91.22 % applied dose | 3.61 % applied dose | ≤ 90 min | significantly inhibited | significant inhibition | 
CNS(=O)(=O)Cc1ccc2[nH]cc(CCN(C)C)c2c1 [Sumatriptan, sumatriptan] | 61% | 138 nM | 65 nM | 101% |  |  |  |  |  |  | 70%
